The record followed here is PMC8764033, “Single-molecule analysis of specificity and multivalency in binding of short linear substrate motifs to the APC/C” (Nature Communications, 2022).

The target in one test is T1, hCdc20^WD40 (Homo sapiens, UniProt Q12834).
T1 construct: human Cdc20 (aa 162–484; pNH188); made in house; host or cells: Sf9 insect cells (baculovirus)
As to the kind of experiment: SMOR assay, human Cdc20 WD40. The settings on record: for Dwell Time: Clb5: Not 3x shutter speed. In kind it is binding. The procedure:
(§1) Activators were cloned into the pFastBac HT A vector, with an N-terminal 2xStrep-Tag II. For some experiments, we constructed vectors for expression of the WD40 domains of yeast Cdh1 (aa 241–550; pNH144), human Cdh1 (aa 165–484; pNH164), or human Cdc20 (aa 162–484; pNH188). For SMOR, a C-terminal GFP tag was added. Bacmid plasmids are listed in Supplementary Table 3. Plasmids were transformed into DH10Bac cells, and purified Bacmid was used to transfect Sf9 cells to generate P1 baculovirus, which was used to generate P2 virus. SF9 cells were infected with the P2 virus for 48 h. Flash-frozen pellets were lysed by sonication or high-pressure homogenization in lysis buffer B (50 mM Tris-HCl pH 8, 150 mM KCl, 0.5 mM EDTA, 1 mM DTT, 10% Glycerol, EDTA-free protease inhibitor tablet, 1 µg ml^−1 pepstatin A). After the lysate was applied to the StrepTrap column, the column was washed with wash buffer B (lysis buffer B lacking protease inhibitors) and eluted in the same buffer containing 2.5 mM desthiobiotin.
(§2) For all SMOR experiments, 24 × 50 mm high precision glass coverslips (Bioscience Tools) and drilled microscope slides were passivated with a combination of PEG and PEG-biotin (coverslips) or PEG only (slides) following a previously published protocol for SiMPull[31]. Reaction chambers (~20 µl) were created using double-sided tape and epoxy. Protein was immobilized on the surface with 0.2 mg ml^−1 NeutrAvidin in buffer C (20 mM HEPES pH 7.5, 150 mM KCl, 10% glycerol, 0.05% Tween-20, 1 mM DTT). Excess NeutrAvidin was washed away and incubated with either biotin-conjugated mouse monoclonal anti-Strep-Tag II antibody (LSBio, Cat. No. LS-C203632-100) or biotin-conjugated rabbit polyclonal anti-GFP antibody (Rockland, Cat. No. 600-406-215) diluted in buffer C + BSA (0.1 mg ml^−1; Molecular Biology Grade Bovine Serum Albumin). Activator WD40 and activated APC/C (typically 50 µl containing about 65 ng APC/C, of which only a small fraction is immobilized on the glass) were immobilized using anti-Strep-Tag II, while APC/C alone was immobilized with anti-GFP. SMOR results were similar when performed in the buffer (wash buffer B) used in polarization anisotropy.
(§3) To capture dynamic protein–protein interactions, dye-labeled substrate diluted in buffer C + BSA was added to the chamber containing immobilized proteins. Interactions were imaged by TIRF microscopy as described below. For optimal signal-to-noise ratio, peptide concentration was no greater than 1 nM. Protein substrates included Hsl1 aa 667–872 and a C-terminal HaloTag followed by a TAP tag, and were produced by translation in rabbit reticulocyte lysates using TnT Quick Coupled Transcription/Translation System (Promega) (see Supplementary Table 5 for plasmids). Protein was purified with magnetic IgG beads and labeled on the bead with JF549 or JF646 dye so that unbound dye could be washed away. Purified dye-labeled protein was then cleaved from the beads using TEV protease. Before adding substrate to the reaction chamber, oxygen scavenging reagents were added (10 nM protocatechuate-3,4-dioxygenase, 2.5 mM protocatechuic acid, and 1 mM Trolox)[41]. A detailed description of the SMOR analysis pipeline is found in Supplementary Note 1.
(§4) Microscopy was performed with a Nikon Eclipse TE2000-E with Perfect Focus with a 100 × 1.49na oil, Apo TIRF DIC N2, 0.13-0.2, WD0.12 objective. Movies were recorded using the Andor iXon DU-897E-CSO. For visualizing GFP-tagged protein, a 491 nm laser was used with an ET525/50 (Chroma) filter for emission. For visualizing JF549-labeled substrate, a 561 nm laser was used with an ET595/50 (Chroma) filter for emission. For visualizing all Cy5-labeled peptides and JF646-labeled substrates, a 640 nm laser was used with an ET685/70 filter (Chroma) for emission. […]

The target in a further test is T2, Cdh1^WD40 (Saccharomyces cerevisiae, UniProt P53197).
T2 construct: the WD40 domains of yeast Cdh1 (aa 241–550; pNH144); made in house; host or cells: Sf9 insect cells (baculovirus)
T2 sequence (P53197 241-550): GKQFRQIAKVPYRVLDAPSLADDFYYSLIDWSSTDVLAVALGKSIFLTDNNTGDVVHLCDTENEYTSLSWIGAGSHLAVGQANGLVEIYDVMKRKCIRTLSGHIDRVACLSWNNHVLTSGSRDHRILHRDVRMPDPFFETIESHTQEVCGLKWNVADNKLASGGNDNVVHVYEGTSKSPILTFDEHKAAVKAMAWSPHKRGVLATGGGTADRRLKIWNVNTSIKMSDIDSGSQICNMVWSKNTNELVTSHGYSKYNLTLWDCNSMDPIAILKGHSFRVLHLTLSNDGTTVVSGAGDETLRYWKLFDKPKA
As to the kind of experiment: SMOR assay (single-molecule off-rate, TIRF), yeast Cdh1^WD40. In kind it is binding. How it is done:
as §1, §2, §3, §4

Setting [1] is: Supplementary Table 1, replicate 1.
[2] abbreviates: Supplementary Table 1, replicate 2.

“Also recorded” adds a separate entry of the source. Where a SMILES comes first, the peptide text is derived from it.

T1 sequence (Q12834 162-484): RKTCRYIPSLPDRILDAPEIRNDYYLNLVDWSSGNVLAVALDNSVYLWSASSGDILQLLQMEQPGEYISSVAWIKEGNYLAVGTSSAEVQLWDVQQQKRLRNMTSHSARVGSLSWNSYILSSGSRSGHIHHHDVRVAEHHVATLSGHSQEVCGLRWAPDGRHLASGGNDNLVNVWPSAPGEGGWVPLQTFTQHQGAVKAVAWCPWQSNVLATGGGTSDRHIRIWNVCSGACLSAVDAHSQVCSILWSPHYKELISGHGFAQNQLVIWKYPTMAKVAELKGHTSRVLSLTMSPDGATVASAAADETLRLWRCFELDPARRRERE

On to `CC[C@H](C)[C@H](NC(=O)[C@H](Cc1ccccc1)NC(=O)[C@H](CO)NC(=O)[C@H](CCCCN)NC(=O)[C@H](CO)NC(=O)[C@H](CCCNC(=N)N)NC(=O)[C@H](CC(N)=O)NC(=O)[C@H](CC(N)=O)NC(=O)[C@H](CC(=O)O)NC(=O)[C@H](CCCCN)NC(=O)[C@H](C)NC(=O)[C@H](C)NC(=O)[C@H](CC(C)C)NC(=O)[C@@H]1CCCN1C(=O)[C@H](CC(C)C)NC(=O)[C@H](CCCNC(=N)N)NC(=O)CNC(=O)[C@H](CCC(N)=O)NC(=O)[C@H](CCC(N)=O)NC(=O)[C@H](CCC(N)=O)NC(=O)[C@H](C)N)C(=O)N[C@@H](CCCCN)C(=O)O` [ySecurin D box] (H-AQQQGRLPLAAKDNNRSKSFIK-OH; N-terminus and C-terminus assumed), for which the “Dwell Time (in words)” value at hCdc20^WD40 (setting [1]), at hCdc20^WD40 (setting [2]), at Cdh1^WD40 (setting [1]) and at Cdh1^WD40 (setting [2]) was “single frame” throughout.

Turning to `CC(C)C[C@H](NC(=O)[C@H](C)NC(=O)[C@H](CCCNC(=N)N)NC(=O)[C@H](CCCNC(=N)N)NC(=O)[C@@H]1CCCN1C(=O)[C@H](CCCCN)NC(=O)[C@H](CO)NC(=O)[C@H](CC(=O)O)NC(=O)[C@@H](N)CCC(N)=O)C(=O)N[C@H](C(=O)N[C@@H](CC(=O)O)C(=O)N[C@H](C(=O)N1CCC[C@H]1C(=O)N[C@H](C(=O)N[C@@H](CC(N)=O)C(=O)N[C@@H](CC(N)=O)C(=O)N[C@@H](CC(N)=O)C(=O)N1CCC[C@H]1C(=O)N[C@@H](CC(C)C)C(=O)N[C@@H](CO)C(=O)N[C@@H](CCC(N)=O)C(=O)N[C@@H](CCCCN)C(=O)O)C(C)C)C(C)C)[C@@H](C)O` [Clb5 D box] (H-QDSKPRRALTDVPVNNNPLSQK-OH; N-terminus and C-terminus assumed), the “Dwell Time” value on hCdc20^WD40 (Supplementary Table 1, replicate 1 (movie listed first)) turned out to be 0.054 ± 0.001 s; at hCdc20^WD40 (Supplementary Table 1, replicate 2 (movie listed second)), 0.058 ± 0.001 s. Further, the mean dwell time at hCdc20^WD40 (less than three times the frame rate, therefore less reliable (footnote a)) is 0.054 s^a. For the same compound, the “Dwell Time (in words)” value at Cdh1^WD40 (setting [1]) and at Cdh1^WD40 (setting [2]) was “single frame” in each case.

Consider “LIYVDKENGEPGTR-K(Cy5) [hSecurin KEN, Cy5-labeled KEN box peptide of human securin/Pttg1]”, for which the “binding (in words)” value at hCdc20^WD40 is listed as “did not bind human Cdc20^WD40; also recorded: No binding”; at Cdh1^WD40, “No binding”. In addition, the “Dwell Time (in words)” value on hCdc20^WD40 (setting [1]), on hCdc20^WD40 (setting [2]), on Cdh1^WD40 (setting [1]) and on Cdh1^WD40 (setting [2]) was “no binding” throughout.

Consider “LPKATRKALGTVNRATEKSVK-K(Cy5) [AurKB D box, Cy5-labeled D box peptide of Aurora B kinase]”, for which the “binding (in words)” value on hCdc20^WD40 is recorded as “single-frame interactions only”. For the same compound, the “Dwell Time (in words)” value at hCdc20^WD40 (setting [1]), on hCdc20^WD40 (setting [2]), at Cdh1^WD40 (setting [1]) and at Cdh1^WD40 (setting [2]) was “single frame” in each case.

Regarding `CC[C@H](C)[C@H](NC(=O)[C@H](CC(=O)O)NC(=O)[C@H](CO)NC(=O)[C@H](C)NC(=O)[C@H](C)NC(=O)[C@H](C)NC(=O)[C@H](C)NC(=O)[C@H](CCCCN)NC(=O)[C@@H]1CCCN1C(=O)[C@H](CCCCN)NC(=O)[C@H](CCC(N)=O)NC(=O)[C@@H](N)CCC(=O)O)C(=O)N[C@H](C(=O)N[C@@H](C)C(=O)N[C@@H](CO)C(=O)N[C@@H](Cc1ccccc1)C(=O)N[C@@H](CC(N)=O)C(=O)N[C@@H](CCCCN)C(=O)N[C@@H](CCSC)C(=O)N[C@@H](CC(N)=O)C(=O)N[C@@H](CCCCN)C(=O)O)[C@@H](C)O` [Hsl1 D box mutant] (H-EQKPKAAAASDITASFNKMNK-OH; N-terminus and C-terminus assumed), the results for the “binding (in words)” value on hCdc20^WD40 and at Cdh1^WD40 were “No binding” and “negligible binding; also recorded: No binding”, respectively. In addition, the “Dwell Time (in words)” value at hCdc20^WD40 (setting [1]), at Cdh1^WD40 (setting [1]) and at Cdh1^WD40 (setting [2]) was “no binding” each time.

Consider “SKAAQFMLYEETAEERNI-K(Cy5) [Acm1 ABBA, Cy5-labeled Cdh1-specific ABBA motif from pseudosubstrate yeast protein Acm1]”, for which the “binding (in words)” value at hCdc20^WD40 is given as “No binding”. Besides, the “Dwell Time (in words)” value is recorded as “no binding” on hCdc20^WD40 (setting [1]), “no binding” at hCdc20^WD40 (setting [2]), “single frame” at Cdh1^WD40 (setting [1]) and “single frame” on Cdh1^WD40 (setting [2]).
